One assay has as its target human IDO1 (Homo sapiens (Human), UniProt P14902). The assay can be described thus: Inhibition activity on human IDO1 (enzyme assay, absorbance at 480 nm). It is filed as biochemical. To be noted: purified recombinant human IDO1, 1 hour at 37° C.; read-out: IC50 for inhibiting the activity of human IDO1. The method, then:
Assay for Determining the Inhibition Activity of the Present Compounds on Human IDO1
Human IDO1 activity was tested in vitro by the following method.
This method is used to determine the inhibition effect of the compounds of the present invention on the activity of human IDO1.
The human IDO1 gene was transferred to Pet30a plasmid by gene cloning, and then transferred to competent Escherichia coli Rosseta. The IDO1 gene was scaled-up by culturing in liquid LB (Luria-Bertani) medium [which was prepared per liter according to “Molecular Cloning A Laboratory Manual” (J. Sambrook, D. W. Russell)]). The bacteria were collected and lysed by ultrasonic waves. The purified IDO1 was obtained by eluting from a column.
For testing, 24 μL of enzyme (IDO1) was diluted 100 times with 50 mM KPB to 2400 μL. The concentration of the enzyme solution was 2.6 ng/μL. A 96 well reaction plate (AXYGEN, PCR-96-FLT-C) (hereinafter referred to as the “reaction plate”) was added with the enzyme solution at 24 μL/well. The blank well was added with 24 μL of KPB [Preparation of KPB buffer (50 mM): 6.805 g of KH2PO4 was weighed using an analytical balance, and placed into a 1000 mL beaker, deionized water was added with a measuring cylinder to 900 ml, the pH was adjusted to 6.5 by 1M KOH, then the mixture was introduced into a 1 L measuring cylinder, and water was added to 1 L. It was stored at 4° C.]. Then, 1 μL of a compound or DMSO was added into the corresponding wells in the reaction plate. Preparation of solution A: 200 μL of 500 mM L-sodium ascorbate were added with 1050 μL of KPB, then the mixture was mixed uniformly for 3 seconds at the maximum speed in a turbine mixer. Solution B: 100 μL of 10 mM tryptophan were added with 100 μL of 100,000 unit/mL catalase, 5 μL of 10 mM methylene blue, and 1050 μL of KPB successively, then the mixture was mixed uniformly for 3 seconds at the maximum speed in a turbine mixer. Then, 1200 μL of solution A and 1200 μL of solution B were taken and mixed uniformly for 3 seconds at the maximum speed in a turbine mixer. The mixture was added to the reaction plate at 24 μL/well. The reaction plate was placed in a plate centrifuge and centrifuged for 15 seconds at the maximum speed, so that the reaction liquids converged to the bottom. The reaction mixture was mixed uniformly for 30 seconds on a shaker, and incubated for 1 hour at 37° C. in a constant temperature incubator. In the reaction plate, 30% (W/V) trichloroacetic acid was added at 10 μL/well, then the mixture was incubated for 15 minutes at 65° C. in an incubator. The reaction plate was centrifuged in a centrifuge for 5 minutes at 4700 RPM at room temperature. […] Then, 2% (W/V) 4-(dimethylamino)benzaldehyde/glacial acetic acid solution was added at 40 μL/well, and the mixture was mixed uniformly for 1 minute on a shaker at the maximum speed. After incubation for 2 minutes at room temperature, the absorbance at 480 nm was read on a Synergy HT (BIOTEK) reader.
The inhibition activity of the compounds of the present invention on human IDO1 was tested by the assay described above.

The next assay addresses IDO in HeLa cells (Homo sapiens (Human), UniProt P14902). The assay can be described thus: Inhibition activity on IDO in HeLa cells (INF-γ induced). It is filed as cell-based. To be noted: HeLa cells, INF-γ and tryptophan, 48 hours; read-out: IC50 for inhibiting the activity of IDO in HeLa cells. The method, then:
Assay for Determining the Inhibition Activity of the Present Compounds on IDO in HeLa Cells
IDO activity in HeLa cells was tested in vitro by the following method.
This method is used to determine the inhibition effect of the compounds of the present invention on the activity of IDO in HeLa cells. (Note: indoleamine 2,3-dioxygenase (IDO) is expressed in the HeLa cell line and induced by interferon gamma (INF-γ)).
The supernatant was removed, serum-free DMEM high glucose medium was added at 90 μL/well, then the compounds contained in the culture medium with INF-γ and tryptophan were added at 10 μL/well (the final concentrations: 10000, 1000, 100, 10, 1, 0.1 nM). […] Then, 80 μL of the supernate was transferred from the 96-well cell culture plate to a 96 well round-bottomed plate, then 30% (W/V) trichloroacetic acid was added at 16 μL/well, then the mixture was incubated for 25 minutes at 65° C. in an incubator. The reaction plate was centrifuged in a centrifuge for 5 minutes at 4700 RPM. Then, 50 μL of the supernatant was transferred from the reaction plate to a 96-well flat-bottomed transparent plate by a multi-channel pipette. Then, 2% (W/V) 4-(dimethylamino)benzaldehyde/glacial acetic acid solution was added at 50 μL/well, then the mixture was mixed uniformly for 1 minute on a shaker. After incubation for 2 minutes at room temperature, the absorbance at 480 nm was read on a Synergy HT Reader.
The inhibition activity of the compounds of the present invention on IDO in HeLa cells was tested by the assay described above.

pIC50: −log10 of the molar value. Structures can show the parent of a compound that is named as a salt.

Chain of human IDO1 (P14902 whole entry): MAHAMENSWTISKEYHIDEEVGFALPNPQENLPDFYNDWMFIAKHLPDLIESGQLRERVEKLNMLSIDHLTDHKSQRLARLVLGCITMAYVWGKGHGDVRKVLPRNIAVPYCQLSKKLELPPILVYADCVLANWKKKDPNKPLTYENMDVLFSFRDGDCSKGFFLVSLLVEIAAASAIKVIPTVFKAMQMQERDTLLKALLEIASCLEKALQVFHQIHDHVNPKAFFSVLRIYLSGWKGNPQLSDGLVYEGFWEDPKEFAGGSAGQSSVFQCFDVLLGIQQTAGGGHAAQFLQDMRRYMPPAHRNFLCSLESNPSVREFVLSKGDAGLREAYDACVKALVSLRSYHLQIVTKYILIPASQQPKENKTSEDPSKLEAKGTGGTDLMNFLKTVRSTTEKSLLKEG
Chain of IDO in HeLa cells (P14902 whole entry): as above

For orientation: pIC50 means −log10 of the IC50, conventionally taken in molar units. With `Fc1cccc(N2CCC(C3c4c(F)cccc4-c4cncn43)CC2)c1` (stereo not shown) [Example 3, 6-fluoro-5-(1-(3-fluorophenyl)piperidin-4-yl)-5H-imidazo[5,1-a]isoindole trifluoroacetate], the negative-log IC50 (pIC50) on human IDO1 was 7.14; on IDO in HeLa cells, 6.78.
Consider `OCCn1cc(-c2ccc(N3CCC([C@H]4c5c(F)cccc5-c5cncn54)CC3)cc2)cn1` [Example 41, (S)-2-(4-(4-(4-(6-fluoro-5H-imidazo[5,1-a]isoindol-5-yl)piperidin-1-yl)phenyl)-1H-pyrazol-1-yl)ethanol], for which the negative logarithm of the IC50 (pIC50) at human IDO1 was 8.04; on IDO in HeLa cells it was 7.32.

For the origin of these results see patent US10899764B2, “Imidazo isoindole derivative, preparation method therefor and medical use thereof” (Jiangsu Hengrui Medicine Co., Ltd., priority 2015, dated 2021).
